Test results published in PubChem BioAssay AID192 (DTP/NCI, 2004).
Where “and” joins values, the source holds several entries; their conditions need not be identical. Identical values can stand only once. Inconclusive results and toxic doses are left out.

Test system: BDF1 mice, B16 melanoma ip, median survival T/C
Experiment: NCI In Vivo Anticancer Drug Screen. Data for tumor model B16 Melanoma (intraperitoneal) in B6D2F1 (BDF1) mice
Settings: endpoint: median survival time, higher = longer survival
Procedure, shortened: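 In this screen, activity was judged from survival or tumor size in treated versus vehicle-treated tumor-bearing mice, reported as T/C.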

[1] = dose: 12.5 mg/kg/injection, schedule: Q01DX009 (ip), vehicle: Klucel (hydroxypropylcellulose) (HPC)
[2] = dose: 25.0 mg/kg/injection, schedule: Q01DX009 (ip), vehicle: Klucel (hydroxypropylcellulose) (HPC)
[3] = dose: 50.0 mg/kg/injection, schedule: Q01DX009 (ip), vehicle: saline with Tween-80
[4] = dose: 100.0 mg/kg/injection, schedule: Q01DX009 (ip), vehicle: saline with Tween-80
[5] = dose: 0.25 mg/kg/injection, schedule: Q01DX009 (ip), vehicle: water
[6] = dose: 0.5 mg/kg/injection, schedule: Q01DX009 (ip), vehicle: water
[7] = dose: 200.0 mg/kg/injection, schedule: Q01DX009 (ip), vehicle: saline with Tween-80
[8] = dose: 100.0 mg/kg/injection, schedule: Q01DX009 (ip), vehicle: Klucel (hydroxypropylcellulose) (HPC)
[9] = dose: 200.0 mg/kg/injection, schedule: Q01DX009 (ip), vehicle: Klucel (hydroxypropylcellulose) (HPC)
[10] = dose: 50.0 mg/kg/injection, schedule: Q01DX009 (ip), vehicle: Klucel (hydroxypropylcellulose) (HPC)
[11] = dose: 25.0 mg/kg/injection, schedule: Q01DX009 (ip), vehicle: saline
[12] = dose: 50.0 mg/kg/injection, schedule: Q01DX009 (ip), vehicle: saline
[13] = dose: 400.0 mg/kg/injection, schedule: Q01DX009 (ip), vehicle: saline with Tween-80

Cc1ccc(Nc2c3ccccc3nc3ccccc23)cc1
T/C (dose: 18.0 mg/kg/injection, schedule: Q01DX009 (ip), vehicle: saline with Tween-80): 123 % of control | T/C (dose: 18.0 mg/kg/injection, schedule: Q04DX003 (ip), vehicle: saline with Tween-80): 105 % of control | T/C (dose: 37.5 mg/kg/injection, schedule: Q04DX003 (ip), vehicle: saline with Tween-80): 110 % of control | T/C (dose: 75.0 mg/kg/injection, schedule: Q04DX003 (ip), vehicle: saline with Tween-80): 105 % of control

O=C1C=CC(=C(c2ccccc2)c2ccccc2)C=C1
T/C (dose: 6.25 mg/kg/injection, schedule: Q01DX009 (ip), vehicle: Klucel (hydroxypropylcellulose) (HPC)): 96 % of control | T/C [1]: 100 % of control | T/C (dose: 12.5 mg/kg/injection, schedule: Q04DX003 (ip), vehicle: Klucel (hydroxypropylcellulose) (HPC)): 96 % of control | T/C [2]: 96 % of control | T/C (dose: 25.0 mg/kg/injection, schedule: Q04DX003 (ip), vehicle: Klucel (hydroxypropylcellulose) (HPC)): 100 % of control

C=CCNc1ccc(OC)cc1
T/C [3]: 95 % of control | T/C [4]: 107 % of control

CCC12C=CCN3CCC4(c5cc(C(c6cccnc6)c6cc7ccccc7n6C)c(OC)cc5N(C)C4C(O)(C(=O)OC)C1OC(C)=O)C32 (stereo unspecified)
T/C (dose: 0.06 mg/kg/injection, schedule: Q01DX009 (ip), vehicle: water): 109 % of control | T/C (dose: 0.13 mg/kg/injection, schedule: Q01DX009 (ip), vehicle: water): 103 % of control | T/C [5]: 100 % of control | T/C [6]: 113 % of control | T/C (dose: 1.0 mg/kg/injection, schedule: Q01DX009 (ip), vehicle: water): 110 % of control | T/C (dose: 2.0 mg/kg/injection, schedule: Q01DX009 (ip), vehicle: other): 104 % of control | T/C (dose: 2.0 mg/kg/injection, schedule: Q01DX009 (ip), vehicle: water): 107 % of control | T/C (dose: 4.0 mg/kg/injection, schedule: Q01DX009 (ip), vehicle: other): 95 % of control | T/C (dose: 8.0 mg/kg/injection, schedule: Q01DX009 (ip), vehicle: other): 101 % of control | T/C (dose: 16.0 mg/kg/injection, schedule: Q01DX009 (ip), vehicle: other): 105 % of control | T/C (dose: 32.0 mg/kg/injection, schedule: Q01DX009 (ip), vehicle: other): 106 % of control

COc1cccc2c1C(=O)c1c(O)c3c(c(O)c1C2=O)CC(O)(C(C)=O)CC3OC1CC(NC(=O)C(CCCCN)NC(=O)C2CCCN2)C(O)C(C)O1 (stereo unspecified)
T/C (dose: 10.0 mg/kg/injection, schedule: Q01DX001 (ip), vehicle: water): 117 % of control | T/C (dose: 20.0 mg/kg/injection, schedule: Q01DX001 (ip), vehicle: water): 123 % of control | T/C (dose: 40.0 mg/kg/injection, schedule: Q01DX001 (ip), vehicle: water): 158 % of control | T/C (dose: 80.0 mg/kg/injection, schedule: Q01DX001 (ip), vehicle: water): 191 % of control

COc1ccc(S(=O)(=O)N=N/C=C2\C=CC=CN2O)cc1OC
T/C (dose: 6.25 mg/kg/injection, schedule: Q01DX009 (ip), vehicle: saline with Tween-80): 99 % of control | T/C (dose: 12.5 mg/kg/injection, schedule: Q01DX009 (ip), vehicle: saline with Tween-80): 100 % of control | T/C (dose: 25.0 mg/kg/injection, schedule: Q01DX009 (ip), vehicle: saline with Tween-80): 112 % of control | T/C [3]: 112 % of control | T/C [7]: 161 % of control

C[C@H]1CN1C1=CC(=O)C(N2C[C@@H]2C)=CC1=O
T/C (dose: 0.5 mg/kg/injection, schedule: Q01DX009 (ip), vehicle: saline with Tween-80): 102 % of control | T/C (dose: 1.0 mg/kg/injection, schedule: Q01DX009 (ip), vehicle: saline with Tween-80): 106 % of control | T/C (dose: 2.0 mg/kg/injection, schedule: Q01DX009 (ip), vehicle: Klucel (hydroxypropylcellulose) (HPC)): 123 % of control | T/C (dose: 4.0 mg/kg/injection, schedule: Q01DX009 (ip), vehicle: Klucel (hydroxypropylcellulose) (HPC)): 115 % of control

CCOc1ccccc1NC(=O)Nc1ccccc1OC
T/C [8]: 86 % of control | T/C [9]: 98 % of control | T/C (dose: 400.0 mg/kg/injection, schedule: Q01DX009 (ip), vehicle: Klucel (hydroxypropylcellulose) (HPC)): 89 % of control

O=C(Nc1ccc(C2=NCCCN2)cc1)c1ccc(C(=O)Nc2ccc(C3=NCCCN3)cc2)nc1
T/C (dose: 5.0 mg/kg/injection, schedule: Q01DX009 (ip), vehicle: saline with Tween-80): 87 % of control | T/C (dose: 10.0 mg/kg/injection, schedule: Q01DX009 (ip), vehicle: saline with Tween-80): 95 % of control

NC(CCl)=NCC12CC3CC(CC(C3)C1)C2
T/C (dose: 3.0 mg/kg/injection, schedule: Q01DX009 (ip), vehicle: Klucel (hydroxypropylcellulose) (HPC)): 110 % of control | T/C (dose: 3.12 mg/kg/injection, schedule: Q01DX009 (ip), vehicle: Klucel (hydroxypropylcellulose) (HPC)): 100 % of control | T/C (dose: 6.0 mg/kg/injection, schedule: Q01DX009 (ip), vehicle: Klucel (hydroxypropylcellulose) (HPC)): 100 % of control | T/C (dose: 12.0 mg/kg/injection, schedule: Q01DX009 (ip), vehicle: Klucel (hydroxypropylcellulose) (HPC)): 107 % of control | T/C (dose: 24.0 mg/kg/injection, schedule: Q01DX009 (ip), vehicle: Klucel (hydroxypropylcellulose) (HPC)): 102 % of control | T/C (dose: 48.0 mg/kg/injection, schedule: Q01DX009 (ip), vehicle: Klucel (hydroxypropylcellulose) (HPC)): 120 % of control

NC(=O)c1ncn(C2OC(CO)C(O)C2O)c1O (stereo unspecified)
T/C [2]: 104 % of control | T/C [10]: 114 % of control | T/C [8]: 109 % of control | T/C [9]: 111 % of control

O=S(=O)(SC(S(=O)(=O)c1ccccc1)S(=O)(=O)c1ccccc1)c1ccccc1
T/C [1]: 99 % of control | T/C [2]: 99 % of control | T/C [10]: 105 % of control | T/C [8]: 107 % of control | T/C [9]: 90 % of control

CCCCN1CCNCC1
T/C [11]: 103 % of control | T/C [12]: 103 % of control | T/C (dose: 100.0 mg/kg/injection, schedule: Q01DX009 (ip), vehicle: saline): 101 % of control

CC(=O)Nc1ccc([I+]c2ccc([N+](=O)[O-])cc2)cc1
T/C [2]: 100 % of control | T/C [10]: 104 % of control | T/C [3]: 87 % of control | T/C [8]: 90 % of control | T/C [4]: 98 % of control | T/C [7]: 107 % of control

COc1cc(C(=O)N2CCN(c3ccccc3)CC2)c2ccccc2n1
T/C [4]: 119 % of control | T/C [7]: 119 % of control | T/C [13]: 124 % of control

CCOc1cc([N+](=O)[O-])c(OCC)cc1Cl
T/C [4]: 94 % of control | T/C [7]: 97 % of control | T/C [13]: 96 % of control

Cc1ccc(C)c(NS(=O)(=O)c2ccc(Cl)cc2)c1
T/C [8]: 93 % of control | T/C [9]: 92 % of control

CCCCCCCCCCCCCC(=O)CC
T/C (dose: 9.4 mg/kg/injection, schedule: Q01DX009 (ip), vehicle: saline with Tween-80): 95 % of control | T/C (dose: 18.75 mg/kg/injection, schedule: Q01DX009 (ip), vehicle: saline with Tween-80): 87 % of control

CCCN(/C=C/C=C/C=[N+](CCC)CCC)CCC
T/C (dose: 0.03 mg/kg/injection, schedule: Q01DX009 (ip), vehicle: saline): 107 % of control | T/C (dose: 0.05 mg/kg/injection, schedule: Q01DX009 (ip), vehicle: saline): 109 % of control | T/C (dose: 0.1 mg/kg/injection, schedule: Q01DX009 (ip), vehicle: saline): 103 % of control | T/C (dose: 0.2 mg/kg/injection, schedule: Q01DX009 (ip), vehicle: saline): 96 % of control

CCN(CC)C1CC(O[C@H]2C[C@](O)(C(C)=O)Cc3c(O)c4c(c(O)c32)C(=O)c2c(OC)cccc2C4=O)OC(C)C1O (stereo partly specified)
T/C [5]: 113 % of control | T/C [6]: 119 % of control

Cc1c(Cl)cccc1N=Cc1ccccc1O
T/C [10]: 106 % of control | T/C [8]: 108 % of control | T/C [9]: 97 % of control

C1CCN(CCC2CCCCN2)CC1 (stereo unspecified)
T/C [11]: 106 % of control | T/C [12]: 100 % of control

Cc1ccc(C)c(NC(=O)Nc2cccc(Cl)c2)c1
T/C [8]: 102 % of control | T/C [9]: 100 % of control

Cc1c(Cl)ccc2c(C(O)CBr)cc(-c3ccccc3)nc12 (stereo unspecified)
T/C [4]: 91 % of control | T/C [7]: 87 % of control

CCN(CC)CCCC(C)NCCCCNC(C)CCCN(CC)CC (stereo unspecified)
T/C (dose: 4.69 mg/kg/injection, schedule: Q01DX009 (ip), vehicle: alcohol): 96 % of control | T/C (dose: 6.25 mg/kg/injection, schedule: Q01DX009 (ip), vehicle: alcohol): 115 % of control | T/C (dose: 9.38 mg/kg/injection, schedule: Q01DX009 (ip), vehicle: alcohol): 104 % of control | T/C (dose: 11.0 mg/kg/injection, schedule: Q01DX009 (ip), vehicle: water): 122 % of control | T/C (dose: 12.5 mg/kg/injection, schedule: Q01DX009 (ip), vehicle: alcohol): 88 % of control | T/C (dose: 16.5 mg/kg/injection, schedule: Q01DX009 (ip), vehicle: water): 94 % of control | T/C (dose: 25.0 mg/kg/injection, schedule: Q01DX009 (ip), vehicle: water): 87 % of control and 224 % of control
